Consider six compounds from PMC10223737, “Validation of Freshly Isolated Rat Renal Cells as a Tool for Preclinical Assessment of Radiolabeled Receptor-Specific Peptide Uptake in the Kidney” (Pharmaceuticals, 2023).

In series [1] the test system is isolated rat renal cells. Kind of series: Active versus passive cellular accumulation in isolated rat renal cells (37 °C vs low temperature). The format is in vitro ADME. The following applies: n = 4, Figure 6; for contribution of active accumulation to cell uptake: 37 °C (= 100%) vs low incubation temperature (2–4 °C). From the text:
An experiment was arranged to test this cellular model's potential for investigating active membrane transport processes in radiopeptide renal accumulation. […] Using the same procedure as for the radiopeptides, we tested and expressed the uptake of the other studied compounds.

In series [2] the test system is isolated rat renal cells. Description: Radiopeptide uptake in freshly isolated rat renal cells. The following applies: 1 mL suspension 2.10^6/mL + 10 µL radiopeptide (1 µg/mL), 30 min, 37 °C, cells washed four times, gamma-counter.
Description: Fresh rat renal cells were isolated from the kidney using the two-phase collagenase perfusion method described by Jones et al. [11]. Male Wistar rats weighing 270–330 g were used for the experiments. The rats were housed under standard conditions (tap water, standard diet, and a 12/12 h light–dark cycle). Animals were fasted for 18–24 h prior to experiments.
As a first step, rats were anesthetized (sodium pentobarbital, 50 mg/kg), the abdomen was opened, and the right renal artery and adjacent parts of the aorta were freed. Then, the right renal artery was cannulated via the aorta. Single-pass perfusion was conducted using oxygenated calcium-free Hanks’ buffer (pH 7.4) containing EGTA (0.5 mM) and Hepes (25 mM). The second perfusion phase was performed in a recirculation system with modified Hanks’ buffer containing CaCl2 (4 mM) and collagenase (0.10 % w/v) for 18–22 min. The kidneys were removed and dispersed in cold Krebs–Henseleit buffer with Hepes (25 mM) and bovine serum albumin (2% w/v). The resulting suspension was filtered and washed with Krebs–Henseleit buffer. Following centrifugation (3 min; 80 g; 4 °C), we used the trypan blue exclusion method to determine the number of cells in the suspension. […] As a result, the cell viability at the end of the 30 min incubation interval was >85%.
Standard incubations were conducted for 30 min at 37 °C using 1 mL of cell suspension containing 2.10^6/mL renal cells. The radiopeptide uptake was determined by mixing 1 mL of cell suspension and 10 µL of the radiopeptide (1 µg/mL). After incubation, the cells were washed four times and separated. The radioactivity of the cell fractions was measured as mentioned below.
Another series relates to rat kidneys. Conditions: cited from earlier work; for radiopeptide uptake in rat kidneys in vivo: radioactivity in the kidneys 60 min after i.v. administration, rats.
A further series relates to LLC-PK1 cells. Description: Cellular uptake in LLC-PK1 cells. Format: in vitro ADME, porcine. The following applies: incubation time 30 min; Figure 5. From the text:
The cellular accumulation of two somatostatin receptor-specific analogs ([^111In]In -DOTA-TATE and [^111In]In -DOTA-NOC) was compared in two renal cellular models, OK cells and LLC-PK1 cells.

Where a SMILES comes first, the peptide text is derived from it. [ ]: non-standard residue; d: D form. The star is where a group is joined. DOTA = O=C(O)CN1CCN(CC(=O)O)CCN(CC(=O)*)CCN(CC(=O)O)CC1

Excerpt for rat kidneys: The data on radiopeptide cellular uptake were compared with already available data on radiopeptide renal retention in rats in vivo, which were previously published by our team.

For the compound `O=C(O)C(S)C(S)C(=O)O` (stereo not drawn) [[^99mTc]Tc-DMSA, dimercaptosuccinate, metal not drawn], the “contribution of active accumulation to cell uptake” value with isolated rat renal cells [1] is given as “lowest contribution”.

With `CSCC[C@H](NC(=O)[C@H](Cc1c[nH]c2ccccc12)NC(=O)CNC(=O)[C@H](Cc1ccc(O)cc1)NC(=O)[C@H](C)NC(=O)[C@@H](CCC(=O)O)NC(=O)CN1CCN(CC(=O)O)CCN(CC(=O)O)CCN(CC(=O)O)CC1)C(=O)N[C@@H](CC(=O)O)C(=O)N[C@@H](Cc1ccccc1)C(N)=O` [[^111In]In-DOTA-MG11, metal not drawn] ({DOTA}-[dE]AYGWMDF-NH2), in the series with isolated rat renal cells [2], the “radiopeptide uptake in isolated rat cells (In Vitro)” value (“radiopeptide uptake … (In Vitro)” for short) was 0.16 ± 0.15 %D/10^6 cells. In addition, in the series with rat kidneys, the “radiopeptide uptake in rat kidneys in vivo” value (“radiopeptide uptake … in vivo” for short) is 0.84 ± 0.35 [21] %D/g.

Regarding “DTPA-DGlu-Glu-Glu-Glu-Glu-Glu-Ala-Tyr-Gly-Trp-Met-Asp-Phe-NH2 [[^111In]In-DTPA-MG0]”, the “retention in the rat kidney in vivo (in words)” value in the series with rat kidneys (rat, in vivo, iv) is “relatively high”.

In the case of “[DOTA^0, D-Phe^1, 1-Nal^3]-octreotide (disulfide) [[^111In]In-DOTA-NOC]”, the “radiopeptide uptake … (In Vitro)” value in the series on isolated rat renal cells [2] came out at 0.75 ± 0.09 %D/10^6 cells. For the same compound, the “cellular accumulation in LLC-PK1 cells compared with OK cells” value in the series on LLC-PK1 cells is given as “significantly higher”. Also, the “radiopeptide uptake … in vivo” value in the series with rat kidneys was 2.84 ± 0.28 [19] %D/g.

On to “[DOTA^0, Tyr^3, Thr^8]-octreotide [[^111In]In-DOTA-TATE]”, for which, in the series on isolated rat renal cells [2], the “radiopeptide uptake … (In Vitro)” value is recorded as 0.36 ± 0.10 %D/10^6 cells. In addition, the “cellular accumulation in LLC-PK1 cells compared with OK cells” value in the series with LLC-PK1 cells was “relatively similar in both cell lines”. Besides, in the series with rat kidneys, the “radiopeptide uptake … in vivo” value is 3.08 ± 0.42 [19] %D/g.

Consider “mercaptoacetylglycylglycylglycine [[^99mTc]Tc-MAG3]”, for which the “accumulation at the low incubation temperature” value in the series with isolated rat renal cells [1] (2–4 °C, active processes blocked) is reported as “negligible accumulation”. Moreover, the “contribution of active accumulation to cell uptake” value with isolated rat renal cells [1] is given as “highest contribution”.
